According to patent US10172911B2, “Methods of modulating erythropoiesis with arginine vasopressin receptor 1B molecules” (The United States of America, as represented by the …, priority 2013, dated 2019):
“Also recorded” adds a separate entry of the source.

How the values were obtained:
[1] = tested on: CD34^+ cells from healthy donors; test: CFU assay (E-CFU, GM-CFU) of human CD34+ cells in Methocult; assay type: cell-based; settings: for effect of pathway inhibitor on CFU increase elicited by AVP: 10^−8 M AVP; for effect of pathway inhibitor on CFU increase elicited by AVPR1B agonist: 10^−8 M AVPR1B agonist; for effect of pathway inhibitor on GM-CFU increase induced by OXT: 10^−8 M OXT
Procedure: CD34^+ cells from healthy donors were plated into semi-solid methylcellulose medium (Methocult) containing hematopoietic factors (GM-CSF 5 ng/ml, IL-3 5 ng/ml, SCF 50 ng/ml, EPO 2.5 U/ml).
The number of erythroid colony forming units (E-CFU) and granulocyte-macrophage colony forming units (GM-CFU) were determined based on morphological criteria on 7th and 14th days in culture.

C57BL6 male mice = test: Hemorrhage anemia model, Alzet pump delivery; assay type: in vivo, mouse; settings: hemorrhage, FIG. 9D
Procedure: Mice were anesthetized with isoflurane. Twenty five percent of their calculated circulating blood volume (calculated based on Animal Research Advisory Committee Guidelines for survival bleeding of mice and rats, OACU, NIH) was drained from the retro-orbital plexus.
The reticulocyte ratio of peripheral blood was determined using the Retic-Count flow kit (BD Biosciences) according to the manufacturer's instructions. Hematocrit values were measured with an automated analyzer and microhematocrit tubes. The reticulocyte index was calculated as follows: reticulocyte ratio %/total gated cells×hematocrit/45.
To infuse vasopressin into the mice, AVP filled ALZET pumps were implanted subcutaneously on the dorsal aspect of the neck (5 ug/day, Alzet 1007D—7 days, 2002-14 days). Vasopressin was also given immediately and 6 hours later as a bolus injection (100 μg/kg). Alzet pumps were inserted subcutaneously. The dimensions and pump specification are: ALZET, (DURECT Corporation, Cupertino, Calif., USA) mini-osmotic pump models 1007D or 2002. The pumps deliver 0.5 μl/h of the desired substance for a for 2-week period. In some cases, erythropoietin antibody (100 μg/mice) was given before anesthesia with the corresponding control antibody. […] Following the initial hemorrhage blood samples were taken at 2, 4 and in some cases 6 days later to determine hematocrit and corrected reticulocyte values.

[2] = tested on: human CD34+ hematopoietic progenitors; test: Intracellular Ca2+ measurement in Fura-2 loaded human CD34+ hematopoietic progenitors; assay type: cell-based; settings: human CD34+ cells; for intracellular calcium levels: agonist stimulation
Procedure: Human BMSCs were loaded with Fura-2 and the cells were stimulated with AVP, or OXT. Intracellular Ca^2+ concentration was assayed as described before (Ely, J. A. et al. J Biol Chem 266, 18635-18641 (1991). To study their response to AVP and specific AVP receptor agonists and antagonists human CD34+ hematopoietic progenitors were Fura-2 loaded and Cytoplasmic Ca2+ measurements were performed in cells kept in suspension using a fluorescence spectrophotometer (Deltascan, Photon Technology International). Ratiometric measurements were recorded at 340/380 nm excitation and 500 nm emission and the ratios were plotted against time. Ionomycin (10 μM) was added at the end of each run to determine the maximum fluorescence ratio.

human CD34^+ cells = test: BrdU cell proliferation assay, human CD34+ cells; assay type: cell-based
Procedure: (§1) Sorted mouse bone marrow LSK cells (10000 cells/well) were plated in a 96 well plate in Stemspan serum free expansion medium ([…] Technologies, Vancouver, Canada) with Pen/Strep, and the following hematopoietic factors: 100 ng/ml TPO, 50 ng/ml FLT3L, 50 ng/ml IL-3 and SCF 100 ng/ml (Peprotech, Rocky Hill, N.J.). Cells were treated with […] (Sigma-Aldrich, St. Louis, Mo.). When using human CD34^+ cells (5000 cells/well), human SCF, TPO, FLT3L and G-CSF (Peprotech, each at 50-100 ng/ml) were added to the Stemspan medium. Cells were treated with 10^−8M-10^−14M AVP. After 24 hours, BrdU at a 1:1000 concentration was added to the cultures and incorporation of BrdU was measured using the Cell Proliferation ELISA BrdU kit (Roche, Mannheim, Germany) after another 24 hours of incubation.

[3] = tested on: mouse bone marrow LSK cells; test: BrdU cell proliferation assay, sorted mouse bone marrow LSK cells; assay type: cell-based; settings: 10^−8M-10^−14M, 2 days culture
Procedure: as §1

Human BMSCs = test: BMSC signalling (ERK phosphorylation, cAMP, intracellular Ca2+); assay type: cell-based; settings: BMSC cultures
Procedure: For cAMP quantitation, 8×10^5 per well human BMSCs were plated in 6 well plates and left to attach overnight. Next day, the medium was changed and the cells were stimulated with AVP or deamino-Cys^1, D-Arg^8 AVP (DDAVP, a V2 receptor agonist) at 10^−6 M for 4 minutes. Cells were washed with PBS and lysed with R&D cell lysis buffer. Cyclic AMP was measured with the R&D cAMP Parameter assay kit (R&D Systems, Minneapolis, Minn.) according to manufacturer's instructions. Total protein concentrations of the cell lysates were measured using the Micro BCA Protein Assay kit (Pierce, Rockford, Ill.) and cAMP amount was normalized to 100 μg of total protein.

[4] = per 1000 plated CD34+ cells, 10^−8 M

1L-6-hydroxymethyl-chiro-inositol 2-(R)-2-O-methyl-3-O-octadecylcarbonate [HIMO]
effect of pathway inhibitor on CFU increase elicited by AVP ([1]; Dkk1 200 ng/ml, HIMO 10^−8 M): had no effect | effect of pathway inhibitor on CFU increase elicited by AVPR1B agonist ([1]; Dkk1 200 ng/ml, HIMO 10^−8 M): had no effect | effect of pathway inhibitor on GM-CFU increase induced by OXT ([1]; Dkk1 200 ng/ml, HIMO 10^−8 M): did block | GM-CFU numbers, inhibitor on its own ([1]; Dkk1 200 ng/ml, HIMO 10^−8 M): Neither Dkk1 nor HIMO affected GM-CFU numbers on their own

d[Leu4, Lys8]-VP [dLeu^4Lys^8-VP]
recovery times (C57BL6 male mice): significantly improved recovery times

COc1ccc(S(=O)(=O)N2C(=O)[C@@](c3ccccc3OC)(N3C[C@H](O)C[C@H]3C(=O)N(C)C)c3cc(Cl)ccc32)c(OC)c1 [AVPR1B antagonist, SSR 149415 - Nelivaptan]
block of the AVP-induced increase in calcium ([2]; antagonist): could be blocked | block of AVP / AVPR1B agonist induced proliferation of human HSPCs (human CD34^+ cells; antagonist): blocked; also recorded: both effects were seen

dCha^4AVP
intracellular calcium levels [2]: increased intra-cellular Ca^2+ concentrations | colony formation ([1]; 10^−8M): stimulated colony formation

NC[C@H](O)c1ccc(O)c(O)c1 [noradrenaline]
erythroid-colony forming unit (E-CFU) numbers [1, 4]: significantly increased

[Phe2, Ile3, Orn8] Vasopressin [AVPR1A agonist]
intracellular calcium levels [2]: did not respond

desGlyAVP
proliferation (BrdU incorporation) of mouse LSK cells [3]: did not

NC(=O)CC[C@@H]1NC(=O)[C@H](Cc2ccccc2)NC(=O)[C@H](Cc2ccc(O)cc2)NC(=O)CCSSC[C@@H](C(=O)N2CCC[C@H]2C(=O)N[C@H](CCCN=C(N)N)C(=O)NCC(N)=O)NC(=O)[C@H](CC(N)=O)NC1=O [AVPR2 agonist, deamino-Cys^1, D-Arg^8 AVP]
cyclic AMP (Human BMSCs; 10^−6 M for 4 minutes): increase in cyclic AMP

CC[C@H](C)[C@@H]1NC(=O)[C@H](Cc2ccc(O)cc2)NC(=O)[C@@H](N)CSSC[C@@H](C(=O)N2CCC[C@H]2C(=O)N[C@@H](CC(C)C)C(=O)NCC(N)=O)NC(=O)[C@H](CC(N)=O)NC(=O)[C@H](CCC(N)=O)NC1=O [OXT, oxytocin]
proliferation (BrdU) of human CD34+ cells / HSPCs (human CD34^+ cells): responded to AVP and OXT in much the same way as mouse LSK cells did | ERK phosphorylation (Human BMSCs): induced ERK phosphorylation | intracellular calcium (Human BMSCs): increase in intracellular Ca^2+ concentrations | granulocyte macrophage-colony forming unit (GM-CFU) numbers [1, 4]: increased only GM-CFU numbers | proliferation (BrdU incorporation) of mouse LSK cells [3]: induced proliferation; also recorded: stimulated LSK proliferation

B1: Dkk1: dickkopf related protein 1, Wnt pathway inhibitor (protein, UniProt O94907 32-266, looked up)
Dickkopf-related protein 1: TLNSVLNSNAIKNLPPPLGGAAGHPGSAVSAAPGILYPGGNKYQTIDNYQPYPCAEDEECGTDEYCASPTRGGDAGVQICLACRKRRKRCMRHAMCCPGNYCKNGICVSSDQNHFRGEIEETITESFGNDHSTLDGYSRRTTLSSKMYHTKGQEGSVCLRSSDCASGLCCARHFWSKICKPVLKEGQVCTKHRRKGSHGLEIFQRCYCGEGLSCRIQKDHHQASNSSRLHTCQRH
effect of pathway inhibitor on CFU increase elicited by AVP ([1]; Dkk1 200 ng/ml, HIMO 10^−8 M): blocked the increase in GM-CFU numbers | effect of pathway inhibitor on CFU increase elicited by AVP ([1]; Dkk1 200 ng/ml, HIMO 10^−8 M, listed as DKK-1): did block | effect of pathway inhibitor on CFU increase elicited by AVPR1B agonist ([1]; Dkk1 200 ng/ml, HIMO 10^−8 M): blocked the increase in GM-CFU numbers | effect of pathway inhibitor on GM-CFU increase induced by OXT ([1]; Dkk1 200 ng/ml, HIMO 10^−8 M): did not alter
